# Columns and labels:
# [1] = target: mutant HIV reverse transcriptases (Human immunodeficiency virus type 1, UniProt P12497, Y768C, cells depend on it); type: cell-based
# [2] = target: mutant HIV reverse transcriptases (Human immunodeficiency virus type 1, UniProt P12497, Y775L, cells depend on it); type: cell-based
# wild type HIV-1 = assay: microbe, parasite or virus in culture; type: cell-based, human immunodeficiency virus type 1 (HIV-1); conditions: Human immunodeficiency virus 1, Hela-JC53, read-out: EC50 WT
# [3] = target: T1, wild-type HIV reverse transcriptase (Human immunodeficiency virus type 1 group M subtype B, UniProt P04585); assay: Activity on wild type reverse transcriptase (Table 1 IC50 WT); type: biochemical
# T1 construct: wild-type and four mutant HIV reverse transcriptases
# Protocol: Using similar methods as described above, 2-[5-bromo-4-(4-cyclopropylnaphthalen-1-yl)-4H-[1,2,4]triazol-3-ylsulfanyl]-N-(2-methyl-4-sulfamoylphenyeacetamide and 2-[5-bromo-4-(4-ethylnaphthalen-1-yl)-4H-[1,2,4]triazol-3-ylsulfanyl]-N-(2-chloro-4-sulfamoylphenyl)-acetamide were synthesized, as were the N-4-carbamyl analog, 2-[5-bromo-4-(4-ethyl-naphthalen-1-yl)-4H-[1,2,4]triazol-3-ylsulfanyl]-N-(2-chloro-4-carbamoylphenyl)-acetamide and the N-4-carboxyl analog. Each of the compounds was tested against a panel of mutant HIV reverse transcriptases, including 20 of the 22 of the mutants that are found in about 2% or more of the patient samples that are resistant to the most widely used non-nucleoside HIV-RT inhibitor efavirenz ((4S)-6-chloro-4-(cyclopropylethynyl)-1,4-dihydro-4-(trifluoromethyl)-2H-3,1-benzoxazin-2-one). […] In most cases both criteria were met. […] […].
# Compounds of the invention were tested against the wild-type and four mutant HIV reverse transcriptases. The results are listed in Table 1 as EC50 (nM) and IC50 (nM). In the Table, A represents <50 nM, B is between 50 and 100 nM, and C is >100 nM. ND is not determined.
Structure (SMILES),EC50 [1],EC50 [2],EC50 (wild type HIV-1),IC50 [3]
O=C(CSc1nnc(Br)n1-c1c(Cl)cc(C2CCC2)c2ccccc12)Nc1ccc(C(=O)O)cc1Cl [compound 25],< 0.05 µM,< 0.05 µM,< 0.05 µM,< 0.05 µM
O=C(CSc1nnc(Br)n1-c1ccc(C2CCC2)c2ccccc12)Nc1ccc(C(=O)O)cc1Cl [compound 26],< 0.05 µM,< 0.05 µM,< 0.05 µM,< 0.05 µM
COc1cccc2c(-n3c(Br)nnc3SCC(=O)Nc3ccc(C(=O)O)cc3Cl)cccc12 [compound 27],< 0.05 µM,> 0.1 µM,< 0.05 µM,< 0.05 µM
CCc1cc(C2CC2)ccc1-n1c(Br)nnc1SCC(=O)Nc1ccc(C(=O)O)cc1Cl [compound 29],< 0.05 µM,> 0.1 µM,< 0.05 µM,< 0.05 µM
O=C(CSc1nnc(Br)n1-c1ccc(C2CC2)cc1C(F)(F)F)Nc1ccc(C(=O)O)cc1Cl [compound 30],< 0.05 µM,> 0.1 µM,< 0.05 µM,< 0.05 µM
O=C(CSc1nnc(Br)n1-c1ccc(C2CC2)cc1Cl)Nc1ccc(C(=O)O)cc1Cl [compound 31],< 0.05 µM,> 0.1 µM,< 0.05 µM,< 0.05 µM
O=C(CSc1nnc(Br)n1-c1cccc2c(OCC3CC3)cccc12)Nc1ccc(C(=O)O)cc1Cl [compound 32],> 0.1 µM,> 0.1 µM,> 0.1 µM,> 0.1 µM
Cc1cc(C2CC2)cc(C)c1-n1c(Br)nnc1SCC(=O)Nc1ccc(C(=O)O)cc1Cl [compound 33],< 0.05 µM,> 0.1 µM,< 0.05 µM,< 0.05 µM
NS(=O)(=O)c1ccc(NC(=O)CSc2nnc(C(F)F)n2-c2ccc3c4c(cccc24)CC3)c(Cl)c1 [compound 36],< 0.05 µM,< 0.05 µM,< 0.05 µM,< 0.05 µM
NS(=O)(=O)c1ccc(NC(=O)CSc2nnc(Br)n2-c2ccc3c4c(cccc24)CC3)c(Cl)c1 [compound 37],< 0.05 µM,< 0.05 µM,< 0.05 µM,< 0.05 µM
Cc1cc(S(N)(=O)=O)ccc1NC(=O)CSc1nnc(Br)n1-c1ccc2c3c(cccc13)CC2 [compound 38],< 0.05 µM,< 0.05 µM,< 0.05 µM,< 0.05 µM
Cc1cc(S(N)(=O)=O)ccc1NC(=O)CSc1nnc(Br)n1-c1ccc(C2CC2)c2ccccc12 [compound 40],< 0.05 µM,< 0.05 µM,< 0.05 µM,< 0.05 µM
CCc1ccc(-n2c(C)nnc2SCC(=O)Nc2ccc(S(N)(=O)=O)cc2C)c2c1CCCC2 [compound 41],< 0.05 µM,> 0.1 µM,< 0.05 µM,< 0.05 µM
CCc1ccc(-n2c(C)nnc2SCC(=O)Nc2ccc(S(N)(=O)=O)cc2Cl)c2c1CCCC2 [compound 43],< 0.05 µM,< 0.05 µM,< 0.05 µM,< 0.05 µM
NS(=O)(=O)c1ccc(NC(=O)CSc2nnc(C(F)F)n2-c2ccc(C3CC3)c3ccccc23)c(Cl)c1 [compound 44],< 0.05 µM,< 0.05 µM,< 0.05 µM,< 0.05 µM
Cc1cc(S(N)(=O)=O)ccc1NC(=O)CSc1nnc(C)n1-c1ccc(C)c2c1CCCC2 [compound 45],< 0.05 µM,0.05 to 0.1 µM,< 0.05 µM,< 0.05 µM
Cc1ccc(-n2c(C)nnc2SCC(=O)Nc2ccc(S(N)(=O)=O)cc2Cl)c2c1CCCC2 [compound 46],< 0.05 µM,< 0.05 µM,< 0.05 µM,< 0.05 µM
CCc1ccc(-n2c(SCC(=O)Nc3ccc(S(N)(=O)=O)cc3Cl)nnc2C(F)F)c2c1CCCC2 [compound 47],< 0.05 µM,< 0.05 µM,< 0.05 µM,< 0.05 µM
Cc1cc(S(N)(=O)=O)ccc1NC(=O)CSc1nnc(C(F)F)n1-c1ccc(C)c2c1CCCC2 [compound 48],< 0.05 µM,0.05 to 0.1 µM,< 0.05 µM,< 0.05 µM
